# Measurements taken from patent US12251434B2 (priority 2021, dated 2025).
# Tested on: hyaluronic acid
# Type: cell-based
substance,measurement,value
4-Methylumbelliferone [4-MU],"Hyaluronic acid with 4-MU, HIS-SARS-CoV-2-3 overexpressed",30.02 ± 2.00 ng/mL
same,"Hyaluronic acid with 4-MU, HIS-SARS-CoV-2-4 overexpressed",19.76 ± 11.3 ng/mL
